In PubChem BioAssay (NCI):
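Protocol summary: plate cells (96-well), add compound at 5 concentrations, incubate 48 h, interpolate endpoints linearly. GI50 = concentration required for 50% inhibition of growth. Definition used: TGI = concentration required for complete inhibition of growth.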

Key:
Assay in all cases: inhibition of tumour cell growth, NCI panel, 48 h
CAKI-1 renal = test system: CAKI-1 renal
NCI-H460 lung = test system: NCI-H460 lung
SF-295 CNS = test system: SF-295 CNS
SR leukemia = test system: SR leukemia
HL-60(TB) leukemia = test system: HL-60(TB) leukemia
LOX IMVI melanoma = test system: LOX IMVI melanoma
HCC-2998 colon = test system: HCC-2998 colon
RXF 393 renal = test system: RXF 393 renal
SF-268 CNS = test system: SF-268 CNS
PC-3 prostate = test system: PC-3 prostate

COc1cccc(-c2nc3sccn3c2-c2ccnc(NCCNC(=O)Nc3cccc(C(F)(F)F)c3)n2)c1
GI50 (CAKI-1 renal): 3.5 µM
TGI (CAKI-1 renal): 10.3 µM
GI50 (NCI-H460 lung): 2.94 µM
TGI (NCI-H460 lung): 14.4 µM
GI50 (SF-295 CNS): 2.8 µM
TGI (SF-295 CNS): 14.9 µM
GI50 (SR leukemia): 3.75 µM
TGI (SR leukemia): 29.7 µM
GI50 (HL-60(TB) leukemia): 2.92 µM
TGI (HL-60(TB) leukemia): 7.43 µM
GI50 (LOX IMVI melanoma): 4.11 µM
TGI (LOX IMVI melanoma): > 100 µM
GI50 (HCC-2998 colon): 3.75 µM
TGI (HCC-2998 colon): 18.7 µM
GI50 (RXF 393 renal): 1.78 µM
TGI (RXF 393 renal): 3.65 µM
GI50 (SF-268 CNS): 4.59 µM
TGI (SF-268 CNS): 43.4 µM
GI50 (PC-3 prostate): 2.48 µM
TGI (PC-3 prostate): 11.9 µM

COC(=O)c1cncc2c1CC1C3(C(=O)OC)C=NC(C4C(CO)=CCC43)C21C (stereo not given)
TGI (CAKI-1 renal): > 100 µM
TGI (NCI-H460 lung): > 100 µM
TGI (SF-295 CNS): > 100 µM
TGI (SR leukemia): > 100 µM
TGI (HL-60(TB) leukemia): > 100 µM
TGI (LOX IMVI melanoma): > 100 µM
TGI (HCC-2998 colon): > 100 µM
TGI (RXF 393 renal): > 100 µM
TGI (SF-268 CNS): > 100 µM
TGI (PC-3 prostate): > 100 µM

Cc1cc(S(=O)(=O)Nc2nnc3cc(C(F)(F)F)cc(C)n23)c(S)cc1Cl
TGI (CAKI-1 renal): > 100 µM
TGI (NCI-H460 lung): 42.5 µM
TGI (SF-295 CNS): > 100 µM
TGI (SR leukemia): > 100 µM
TGI (HL-60(TB) leukemia): > 100 µM
TGI (LOX IMVI melanoma): > 100 µM
TGI (HCC-2998 colon): > 70.1 µM
TGI (RXF 393 renal): > 100 µM
TGI (SF-268 CNS): > 100 µM
TGI (PC-3 prostate): > 100 µM

O=C(O)c1ccc(Nc2nc3cc(C(F)(F)F)ccc3nc2C(=O)O)cc1
TGI (CAKI-1 renal): > 100 µM
TGI (NCI-H460 lung): > 100 µM
TGI (SF-295 CNS): > 100 µM
TGI (SR leukemia): > 100 µM
TGI (HL-60(TB) leukemia): > 100 µM
TGI (LOX IMVI melanoma): > 100 µM
TGI (HCC-2998 colon): > 100 µM
TGI (RXF 393 renal): > 100 µM
TGI (SF-268 CNS): > 100 µM
TGI (PC-3 prostate): > 100 µM

Cc1ccc2c(c1)OC1Nc3ccccc3C1=C2O (stereo not given)
TGI (CAKI-1 renal): 97.5 µM
TGI (NCI-H460 lung): 64.3 µM
TGI (SF-295 CNS): 60 µM
TGI (SR leukemia): > 100 µM
TGI (HL-60(TB) leukemia): 43.1 µM
TGI (LOX IMVI melanoma): 71.5 µM
TGI (HCC-2998 colon): 33.9 µM
TGI (RXF 393 renal): 72.4 µM
TGI (SF-268 CNS): > 100 µM
TGI (PC-3 prostate): 39.6 µM

O=C1C=CC(=O)c2ncccc21
TGI (CAKI-1 renal): 4.02 µM
TGI (NCI-H460 lung): 17.5 µM
TGI (SF-295 CNS): 23.1 µM
TGI (SR leukemia): 5.88 µM
TGI (HL-60(TB) leukemia): 2.02 µM
TGI (LOX IMVI melanoma): 6.32 µM
TGI (HCC-2998 colon): 21 µM
TGI (RXF 393 renal): 12.8 µM
TGI (SF-268 CNS): 27.1 µM
TGI (PC-3 prostate): 22.3 µM

CCCCCCCCCCCCCCCCCCOCC(O)COP(=O)(O)OCC1OC(n2cc(F)c(=O)[nH]c2=O)CC1O (stereo not given)
TGI (CAKI-1 renal): 26.8 µM
TGI (NCI-H460 lung): 21.1 µM
TGI (SF-295 CNS): 19 µM
TGI (SR leukemia): 22.6 µM
TGI (HL-60(TB) leukemia): 25.1 µM
TGI (LOX IMVI melanoma): 15.1 µM
TGI (HCC-2998 colon): 2.92 µM
TGI (RXF 393 renal): 29 µM
TGI (SF-268 CNS): 36.5 µM
TGI (PC-3 prostate): 18.8 µM

CCOP(=O)(OCC)C(Nc1ccc(F)cc1)c1cccc([N+](=O)[O-])c1 (stereo not given)
TGI (CAKI-1 renal): > 100 µM
TGI (NCI-H460 lung): > 100 µM
TGI (SF-295 CNS): > 100 µM
TGI (SR leukemia): > 100 µM
TGI (HL-60(TB) leukemia): > 100 µM
TGI (LOX IMVI melanoma): > 100 µM
TGI (HCC-2998 colon): > 100 µM
TGI (RXF 393 renal): > 100 µM
TGI (SF-268 CNS): > 100 µM
TGI (PC-3 prostate): > 100 µM

COC1/C=C/C(C)C(C(C)C(OC)C(C)CCC(=O)C(C)C(CCC(=O)O)OC)OC(=O)/C=C/C=C(\C)CC(OC)CC2=CC(=O)O[C@@H](C(C)C(OC)CC(OC)/C=C/C(C)C(OC)C1)[C@H]2O (stereo not given in full)
TGI (CAKI-1 renal): 0.934 µM
TGI (NCI-H460 lung): > 5 µM
TGI (SF-295 CNS): > 5 µM
TGI (SR leukemia): > 4.14 µM
TGI (HL-60(TB) leukemia): 1 µM
TGI (LOX IMVI melanoma): > 3.67 µM
TGI (HCC-2998 colon): > 5 µM
TGI (RXF 393 renal): 1.49 µM
TGI (SF-268 CNS): > 2.47 µM
TGI (PC-3 prostate): 2.82 µM
